Laboratory results from patent publication US20260027068A1, “METHODS OF ADM[…]-KETAMINE” (Perception Neuroscience, Inc., priority 2022, published 2026).

Legend:
[1] = tested on: mouse model of depression; settings: cited from earlier work
subjects with TRD = settings: single IV infusion 0.5 mg/kg; 7 subjects with TRD; cited from earlier work
[2] = Phase 1 single ascending dose plasma pharmacokinetics of 40-minute IV infusion of R(−)-ketamine and its metabolites; settings: for Tmax: all dose levels 5 mg to 150 mg; for AUC(0-inf) / Cmax / AUC(0-t): iv
Procedure: This was a Phase 1 randomized, placebo-controlled, double-blind, single dose study conducted at one center. […] The pharmacokinetic (PK) population was 36 subjects, with 12 additional subjects receiving placebo. […] Subjects were male or female healthy subjects, 18 to 65 years of age. […] Cohort 1 was dosed at 5 mg, followed by Cohort 2 at 15 mg, Cohort 3 at 30 mg, Cohort 4 at 60 mg, Cohort 5 at 100 mg, and Cohort 6 at 150 mg R(−)-ketamine. […] In addition to the safety and tolerability data, the study also evaluated the dose-related PK of each 40-minute IV infusion of R(−)-ketamine.
To evaluate the pharmacokinetics of R(−)-ketamine, blood was drawn from subjects for PK analysis at the following sampling times: pre-dose (−30 minutes); and from the start of infusion (5, 10, and 15 minutes [±1 minute], 30 minutes [±5 minutes], 40 minutes [immediately prior to infusion completion], 1, 1.5, 2, and 3 hours [±5 minutes], 4 and 8 hours [±10 minutes], 12 and 24 hours [±15 minutes]).
Plasma PK parameters of R(−)-ketamine and its metabolites (norketamine, 6-hydroxynorketamine, and dehydronorketamine) evaluated on include the following: • Maximum plasma concentration (Cmax), • Time to Cmax (Tmax), • Area under the plasma concentration curve (AUC0-t, AUC0-∞) • Elimination rate constant (λz), • Half-live (t½) • Clearance (CL, P R(−)-ketamine only), • Volume of distribution (Vz, R(−)-ketamine only), and • Metabolite to parent ratios (area under curve [AUC] and Cmax).
The dose proportionality was assessed both visually and statistically using calculated Cmax and AUC values. […] Continuous variables: Descriptive statistics included the number of non-missing values (n), arithmetic mean, standard deviation (SD), median, minimum, and maximum values. […] For PK concentration data, the number of non-missing values, number of below limit of quantification (BLQ) values, arithmetic mean, SD, median, minimum, maximum, coefficient of variation (CV %), geometric mean, and geometric CV (geo CV %) values are presented. For PK parameter data, the number of non-missing values, arithmetic mean, SD, median, minimum, maximum, CV %, geometric mean, and geometric CV (geo CV %) values are presented.
Intravenous administration of allocated blinded study drug (Morning, Day 1) was infused over 40 minutes. Blood collection for plasma PK analysis occurred at infusion 5, 10, 15, 30, 40, 60, and 90 minutes, and 2, 3, 4, 8, and 12 hours after the start of infusion.
Plasma concentrations of R(−)-ketamine and its metabolites norketamine, 6-hydroxynorketamine, and dehydronorketamine were determined using a suitable validated analytical method with a lower limit of quantitation (LOQ) of 1 ng/mL.
The linearity of the increase in exposure with respect to the increasing dose administered was evaluated for Cmax and AUC for R(−)-ketamine and its metabolites (norketamine, 6-hydroxynorketamine and dehydronorketamine). […] The power model was used to estimate the slope parameter and the 90% confidence intervals for the slope.

[3] = both, human, plasma, intravenous

With `CN[C@@]1(c2ccccc2Cl)CCCCC1=O.Cl` [R(−)-ketamine, (2R)-2-(2-chlorophenyl)-2-(methylamino)cyclohexan-1-one] as the compound, how does the “Antidepressant effects on depression-like symptoms” value [1] read?
The value was “more potent antidepressant effects on the depression-like symptoms when compared to S(+)-ketamine”.

And the “Antidepressant effects and safety profile” value (subjects with TRD)?
Its value is “fast-onset and sustained antidepressant effects with a favorable safety profile”.

What about the “Earliest timepoint at which concentrations were quantifiable in all subjects” value ([2]; after start of infusion, LOQ 1 ng/mL) of the same compound?
The value was 5 min.

And the Vd [2, 3]?
The Vd was 345 to 921 L.

And the clearance [2, 3]?
Its clearance is 1280 to 1630 mL/min.

What about the half-life [2, 3] of the same compound?
The half-life was 184 to 433 min.

And the Tmax ([2]; both, human, plasma, intravenous, Median plasma Tmax)?
The Tmax was 40 min.

And the Tmax ([2]; both, human, plasma, intravenous, Plasma Tmax range)?
Its Tmax is 15 to 40 min.

What about the AUC(0-inf) ([2]; both, human, plasma, 5 mg) of the same compound?
Its AUC(0-inf) is 64 ng·h/mL.

And the Cmax ([2]; both, human, plasma, 5 mg)?
Its Cmax is 33.9 ng/mL.

What about the AUC(0-t) ([2]; both, human, plasma, 5 mg, Arithmetic mean AUC0-24h, 5 mg R(−)-ketamine IV) of the same compound?
Its AUC(0-t) is 63.5 ng·h/mL.

What about the AUC(0-t) ([2]; both, human, plasma, 5 mg, Arithmetic mean AUC0-t, 5 mg R(−)-ketamine IV) of the same compound?
The AUC(0-t) was 57.5 ng·h/mL.

And the AUC(0-inf) ([2]; both, human, plasma, 150 mg)?
The AUC(0-inf) was 1820 ng·h/mL.

And the Cmax ([2]; both, human, plasma, 150 mg)?
The Cmax was 780 ng/mL.

And the AUC(0-t) ([2]; both, human, plasma, 150 mg, Arithmetic mean AUC0-24h, 150 mg R(−)-ketamine IV)?
The AUC(0-t) was 1720 ng·h/mL.

What about the AUC(0-t) ([2]; both, human, plasma, 150 mg, Arithmetic mean AUC0-t, 150 mg R(−)-ketamine IV) of the same compound?
The AUC(0-t) was 1720 ng·h/mL.
